From patent US20220348584A1, “PERK INHIBITING INDOLINYL COMPOUNDS” (HiberCell, Inc., priority 2019, published 2022)
Read-outs that look alike come from different tables or passages of the source.

Assays:
[1] = target: T1, EIF2AK3 (PERK) catalytic domain (amino acids 536-1116) (Homo sapiens, UniProt Q9NZJ5); test: PERK In Vitro Activity Assay (Isolated), TR-FRET kinase assay; assay type: biochemical; conditions: isolated PERK enzyme, 1.5 μM ATP
T1 construct: EIF2AK3 (PERK) catalytic domain (amino acids 536-1116); purchased Invitrogen, Carlsbad, Calif
T1 sequence (Q9NZJ5 536-1116): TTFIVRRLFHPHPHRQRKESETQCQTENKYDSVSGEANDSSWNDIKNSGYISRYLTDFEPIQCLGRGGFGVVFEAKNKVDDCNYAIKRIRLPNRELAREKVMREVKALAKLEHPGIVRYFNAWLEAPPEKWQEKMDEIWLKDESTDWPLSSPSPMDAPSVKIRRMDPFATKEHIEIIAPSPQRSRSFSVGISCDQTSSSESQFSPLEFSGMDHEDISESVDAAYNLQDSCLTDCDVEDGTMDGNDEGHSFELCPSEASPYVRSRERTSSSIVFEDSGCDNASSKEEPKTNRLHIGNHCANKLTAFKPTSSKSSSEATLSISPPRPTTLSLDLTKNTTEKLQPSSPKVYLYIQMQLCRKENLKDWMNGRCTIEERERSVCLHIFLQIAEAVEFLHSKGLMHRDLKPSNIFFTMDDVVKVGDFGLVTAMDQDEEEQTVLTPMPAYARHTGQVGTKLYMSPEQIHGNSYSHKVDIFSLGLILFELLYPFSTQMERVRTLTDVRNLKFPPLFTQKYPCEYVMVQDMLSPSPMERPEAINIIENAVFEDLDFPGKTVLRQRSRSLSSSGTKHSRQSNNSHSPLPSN
Experimental: Perform TR-FRET kinase assays in the absence or presence of inhibitors in a reaction buffer consisting of 50 mM HEPES, pH 7.5, 10 mM MgCb, 1.0 mM EGTA, and 0.01% Brij-35, and 100-200 nM GFP-eIF2a substrate. […] Add test compound, initiate the reaction by addition of enzyme, and incubate at room temperature for 45 minutes. Stop the reaction by addition of EDTA to a final concentration of 10 mM, add Terbium-labelled phospho-eIF2a antibody at a final concentration of 2 nM, and incubate for 90 minutes. Monitor the resulting fluorescence in an EnVison® Multilabel reader (PerkinElmer, Waltham, Mass.).

HEK293-EGFP-eIF2a cells = test: PERK Cellular Assay (TR-FRET, GFP-eIF2α, tunicamycin-induced ER stress); assay type: cell-based, human
Experimental: Stable cell lines were created in HEK293 cells using lentiviral particles harboring an expression vector for GFP-eIF2α. Cells were selected using puromycin and enriched using fluorescence activated cell sorting against GFP. HEK293-EGFP-eIF2a cells were plated at 5000 cells/well in 384-well assay plates and incubated overnight at 37° C., 5% CO2. Inhibitor compounds were added to the wells by Echo acoustic dispensing and incubated for 30 minutes at 37° C., 5% CO2 prior to induction of ER stress by addition of tunicamycin to […] for 2 hours. Cells were lysed and TR-FRET was measured in an EnVision plate reader (PerkinElmer). FRET ratio data was normalized to signal from lysates treated with DMSO vehicle control and plotted as percent inhibition against 10-point; 3-fold dilution series of inhibitors. IC50 values were calculated using 4-parameter logistical fitting in XLFit.

[2] = Homo sapiens, 2 h, HEK293-EGFP-eIF2a cells, tunicamycin 2 hours, TR-FRET, read-out: Cellular eIF2α IC50
[3] = HEK293-EGFP-eIF2a cells, tunicamycin 2 hours, TR-FRET, read-out: Cellular eIF2α IC50

| IC50 ([1]; read-out: Biochemical IC50) [µM] | Compound | IC50 (HEK293-EGFP-eIF2a cells; [2]) [µM] | IC50 (HEK293-EGFP-eIF2a cells; [3]) [µM] | IC50 (HEK293-EGFP-eIF2a cells; Homo sapiens, 2 h, read-out: Cellular eIF2α IC50 (μM)) [µM] | IC50 ([1]; Biochemical IC50 (μM)) [µM] |
| --- | --- | --- | --- | --- | --- |
| 0.026 to 0.05 | Cc1nc(N)c2c(-c3ccc4c(c3F)CCN4C(=O)C(O)c3ccccc3)cn(C)c2n1 (racemic) [Example 5, 1-(5-(4-amino-2,7-dimethyl-7H-pyrrolo[2,3-d]pyrimidin-5-yl)-4-fluoroindolin-1-yl)-2-hydroxy-2-phenylethanone] | – | – | – | – |
| – | Cc1nc(N)c2c(-c3ccc4c(c3F)CCN4C(=O)C(O)c3cccc(F)c3)cn(C)c2n1 (racemic) [Example 9, 1-(5-(4-amino-2,7-dimethyl-7H-pyrrolo[2,3-d]pyrimidin-5-yl)-4-fluoroindolin-1-yl)-2-(3-fluorophenyl)-2-hydroxyethanone] | 0.051 to 0.1 | – | – | – |
| 0.001 to 0.025 | Cc1nc(N)c2c(-c3ccc4c(c3F)CCN4C(=O)C(O)c3cc(F)cc(F)c3)cn(C)c2n1 (racemic) [Example 10, 1-(5-(4-amino-2,7-dimethyl-7H-pyrrolo[2,3-d]pyrimidin-5-yl)-4-fluoroindolin-1-yl)-2-(3,5-difluorophenyl)-2-hydroxyethanone] | 0.001 to 0.025 | – | – | – |
| 0.001 to 0.025 | Cn1cc(-c2ccc3c(c2F)CCN3C(=O)C(O)c2ccccc2)c2c(N)ncnc21 (single isomer, unassigned) [Example 1, 1-(5-(4-amino-7-methyl-7H-pyrrolo[2,3-d]pyrimidin-5-yl)-4-fluoroindolin-1-yl)-2-hydroxy-2-phenylethanone] | – | 0.001 to 0.025 | – | – |
| 0.051 to 0.1 | Cn1cc(-c2ccc3c(c2F)CCN3C(=O)C(O)c2ccccc2)c2c(N)ncnc21 (single isomer, unassigned) [Example 2, 1-(5-(4-amino-7-methyl-7H-pyrrolo[2,3-d]pyrimidin-5-yl)-4-fluoroindolin-1-yl)-2-hydroxy-2-phenylethanone] | – | 0.101 to 0.25 | – | – |
| 0.051 to 0.1 | Cn1cc(-c2ccc3c(c2F)CCN3C(=O)C(N)c2ccccc2)c2c(N)ncnc21 (single isomer, unassigned) [Example 3, 2-amino-1-(5-(4-amino-7-methyl-7H-pyrrolo[2,3-d]pyrimidin-5-yl)-4-fluoroindolin-1-yl)-2-phenylethanone] | 0.051 to 0.1 | – | – | – |
| 0.101 to 0.25 | Cn1cc(-c2ccc3c(c2F)CCN3C(=O)C(N)c2ccccc2)c2c(N)ncnc21 (single isomer, unassigned) [Example 4, 2-amino-1-(5-(4-amino-7-methyl-7H-pyrrolo[2,3-d]pyrimidin-5-yl)-4-fluoroindolin-1-yl)-2-phenylethanone] | – | 0.051 to 0.1 | – | – |
| 0.101 to 0.25 | CC(C)NC(=O)c1cc(-c2ccc3c(c2F)CCN3C(=O)C(O)c2cc(F)cc(F)c2)cnc1N (single isomer, unassigned) [Example 6, 2-amino-5-(1-(2-(3,5-difluorophenyl)-2-hydroxyacetyl)-4-fluoroindolin-5-yl)-N-isopropylnicotinamide] | – | 0.251 to 0.5 | – | – |
| 0.051 to 0.1 | CC(C)NC(=O)c1cc(-c2ccc3c(c2F)CCN3C(=O)C(O)c2cc(F)cc(F)c2)cnc1N (single isomer, unassigned) [Example 7, 2-amino-5-(1-(2-(3,5-difluorophenyl)-2-hydroxyacetyl)-4-fluoroindolin-5-yl)-N-isopropylnicotinamide] | – | 0.101 to 0.25 | – | – |
| 0.026 to 0.05 | Cc1cn2c(C3CC(C)(O)C3)nc(-c3ccc4c(c3F)CCN4C(=O)C(O)c3cccc(F)c3)c2c(N)n1 (single isomer, unassigned) [Example 13, 1-(5-(8-amino-3-(3-hydroxy-3-methylcyclobutyl)-6-methylimidazo[1,5-a]pyrazin-1-yl)-4-fluoroindolin-1-yl)-2-(3-fluorophenyl)-2-hydroxyethanone] | – | 0.251 to 0.5 | – | – |
| 0.001 to 0.025 | Cc1cn2c(C3CC(C)(O)C3)nc(-c3ccc4c(c3F)CCN4C(=O)C(O)c3cccc(F)c3)c2c(N)n1 (single isomer, unassigned) [Example 14, 1-(5-(8-amino-3-(3-hydroxy-3-methylcyclobutyl)-6-methylimidazo[1,5-a]pyrazin-1-yl)-4-fluoroindolin-1-yl)-2-(3-fluorophenyl)-2-hydroxyethanone] | – | 0.051 to 0.1 | – | – |
| 0.051 to 0.1 | Cc1cccc(C(O)C(=O)N2CCc3c2ccc(-c2nc(C4CC(C)(O)C4)n4cc(C)nc(N)c24)c3F)n1 (single isomer, unassigned) [Example 17, 1-(5-(8-amino-3-(3-hydroxy-3-methylcyclobutyl)-6-methylimidazo[1,5-a]pyrazin-1-yl)-4-fluoroindolin-1-yl)-2-hydroxy-2-(6-methylpyridin-2-yl)ethanone] | > 5 | – | – | – |
| 0.051 to 0.1 | Cc1cccc(C(O)C(=O)N2CCc3c2ccc(-c2nc(C4CC(C)(O)C4)n4cc(C)nc(N)c24)c3F)n1 (single isomer, unassigned) [Example 18, 1-(5-(8-amino-3-(3-hydroxy-3-methylcyclobutyl)-6-methylimidazo[1,5-a]pyrazin-1-yl)-4-fluoroindolin-1-yl)-2-hydroxy-2-(6-methylpyridin-2-yl)ethanone] | – | 3 to 4 | – | – |
| 0.001 to 0.025 | Cc1nc(N)c2c(-c3ccc4c(c3)CCN4C(=O)C(O)c3cc(F)cc(C(F)(F)F)c3)cn(C)c2n1 (single isomer, unassigned) [Example 19, 1-(5-(4-amino-2,7-dimethyl-7H-pyrrolo[2,3-d]pyrimidin-5-yl)indolin-1-yl)-2-(3-fluoro-5-(trifluoromethyl)phenyl)-2-hydroxyethanone] | – | 0.101 to 0.25 | – | – |
| 0.026 to 0.05 | Cc1nc(N)c2c(-c3ccc4c(c3)CCN4C(=O)C(O)c3cc(F)cc(C(F)(F)F)c3)cn(C)c2n1 (single isomer, unassigned) [Example 20, 1-(5-(4-amino-2,7-dimethyl-7H-pyrrolo[2,3-d]pyrimidin-5-yl)indolin-1-yl)-2-(3-fluoro-5-(trifluoromethyl)phenyl)-2-hydroxyethanone] | – | 0.026 to 0.05 | – | – |
| 0.001 to 0.025 | Cc1cccc(CC(=O)N2CCc3c2ccc(-c2cn(C)c4nc(C)nc(N)c24)c3F)n1 [Example 21, 1-(5-(4-amino-2,7-dimethyl-7H-pyrrolo[2,3-d]pyrimidin-5-yl)-4-fluoroindolin-1-yl)-2-(6-methylpyridin-2-yl)ethanone] | 0.026 to 0.05 | – | – | – |
| – | Cn1cc(-c2ccc3c(c2F)CCN3C(=O)Cc2cccc(C(F)(F)F)n2)c2c(N)ncnc21 [Example 22, 1-(5-(4-amino-7-methyl-7H-pyrrolo[2,3-d]pyrimidin-5-yl)-4-fluoroindolin-1-yl)-2-(6-(trifluoromethyl)pyridin-2-yl)ethanone] | – | – | 0.001 to 0.025 | 0.001 to 0.025 |
| 0.026 to 0.05 | Cc1cccc(CC(=O)N2CCc3c2ccc(-c2nc(C)n4ccnc(N)c24)c3F)n1 [Example 23, 1-(5-(8-amino-3-methylimidazo[1,5-a]pyrazin-1-yl)-4-fluoroindolin-1-yl)-2-(6-methylpyridin-2-yl)ethanone] | 0.026 to 0.05 | – | – | – |
| 0.051 to 0.1 | Cc1cccc(CC(=O)N2CCc3c2ccc(-c2nc(C)n4c(C)cnc(N)c24)c3F)n1 [Example 24, 1-(5-(8-amino-3,5-dimethylimidazo[1,5-a]pyrazin-1-yl)-4-fluoroindolin-1-yl)-2-(6-methylpyridin-2-yl)ethanone] | 0.026 to 0.05 | – | – | – |
| 0.051 to 0.1 | CCc1cnc(N)c2c(-c3ccc4c(c3F)CCN4C(=O)Cc3cccc(C)n3)nc(C)n12 [Example 25, 1-(5-(8-amino-5-ethyl-3-methylimidazo[1,5-a]pyrazin-1-yl)-4-fluoroindolin-1-yl)-2-(6-methylpyridin-2-yl)ethanone] | 0.051 to 0.1 | – | – | – |
| 0.101 to 0.25 | Cc1cccc(CC(=O)N2CCc3c2ccc(-c2nc(C)n4cc(C)nc(N)c24)c3F)n1 [Example 26, 1-(5-(8-amino-3,6-dimethylimidazo[1,5-a]pyrazin-1-yl)-4-fluoroindolin-1-yl)-2-(6-methylpyridin-2-yl)ethanone] | 0.101 to 0.25 | – | – | – |
